The values below come from paper PMC7496920, “Structure‐Activity Relationship of Phenylpyrazolones against Trypanosoma cruzi” (Chemmedchem, 2020).

The subject of data set [1] is intracellular amastigotes of T. cruzi (Tulahuen strain). In words: Trypanosoma cruzi in vitro susceptibility assay on intracellular amastigotes (β‐galactosidase strain). Type of data set: cell-based. Particulars: for IC50: Trypanosoma cruzi, TULAHUEN, MRC-5 SV2, 168 h, intracellular amastigotes, Tulahuen CL2 β‐galactosidase strain in MRC‐5SV2 cells, 7 d, SD ±0.2, n>=2, read-out: pIC50 T. cruzi (converted); for SI (selectivity index): cytotoxicity (IC50, MRC‐5) divided by T. cruzi activity (IC50). As to the method:
Trypanosoma cruzi in vitro assay: Bloodstream trypomastigotes (BT) of the Y strain of T. cruzi were obtained by cardiac puncture of infected Swiss Webster mice on the parasitaemia peak.12 For the standard in vitro susceptibility assay on intracellular amastigotes, T. cruzi Tulahuen CL2, β‐galactosidase strain (DTU VI, nifurtimox‐sensitive) was used. The strain is maintained on MRC‐5SV2 (human lung fibroblast) cells in MEM medium, supplemented with […] L‐glutamine, 16.5 mM NaHCO3, and 5 % heat inactivated fetal calf serum (FCSi). […] The color reaction was read at 540 nm after 4 h, and absorbance values were expressed as a percentage of the blank controls. All cultures and assays are conducted at 37 °C under 5 % CO2.13 Benznidazole was used as a reference compound.

The test system is the same in data set [2]. Also noted: method as in earlier work. Particulars: earlier hit optimization; cited from earlier work.
Data set [3] has as its system MRC‐5 cells. Kind of data set: MRC‐5 cytotoxicity in vitro assay (resazurin). Type of data set: cell-based, human. Particulars: for IC50: Homo sapiens, MRC5, 72 h, MRC‐5‐SV2 cytotoxicity, 72 h, SD ±0.2, n>=2, read-out: pIC50 MRC‐5 (converted). The method, then:
MRC‐5 cytotoxicity in vitro assay: MRC‐5‐SV2 cells, originally from a human diploid lung cell line, were cultivated in MEM, supplemented with L‐glutamine (20 mM), 16.5 mM sodium hydrogen carbonate and 5 % FCSi. For the assay, 10^4 cells/well were seeded onto the test plates containing the pre‐diluted sample and incubated at 37 °C and 5 % CO2 for 72 h. Cell viability was assessed fluorometrically 4 h after addition of resazurin (excitation 550 nm, emission 590 nm). The results are expressed as percentage reduction in cell viability compared to untreated controls. Tamoxifen was used as a reference compound.

Data set [4] has as its system MRC‐5 cells. Also noted: method as in earlier work. The note with it: earlier hit optimization; cited from earlier work.

Where only a bound is given, the exact number is not on record here.

As for `COc1ccc(C2=NN(C(C)C)C(=O)C2(C)C)cc1-c1cccnc1` [compound 3, 2‐isopropyl‐5‐(4‐methoxy‐3‐(pyridin‐3‐yl)phenyl)‐4,4‐dimethyl‐2,4‐dihydro‐3H‐pyrazol‐3‐one], in data set [1], the IC50 is 0.398 µM and the “SI (selectivity index)” value was 100. In data set [2], the “pIC50 T. cruzi” value is listed as 6.4. For the same molecule, in data set [3], the IC50 was 39.8 µM. Further, the “pIC50 MRC‐5” value in data set [4] was 4.4.
Consider `COc1cc(C2=NN(C(C)C)C(=O)C2(C)C)cc(-c2cccnc2)c1` [compound 57], for which, in data set [1], the IC50 was 7.94 µM and the “SI (selectivity index)” value came out at 4. In addition, the IC50 in data set [3] was 31.6 µM.
For `COc1cc(C2=NN(C(C)C)C(=O)C2(C)C)cc(-c2cccnc2)c1OC` [compound 58], the IC50 in data set [1] is 50.1 µM; in data set [3], above 63.1 µM. Also, in data set [1], the “SI (selectivity index)” value is listed as above 1.
For the molecule `CC(C)N1N=C(c2cc3c(c(-c4cccnc4)c2)OCC3)C(C)(C)C1=O` [compound 59, 1‐Isopropyl‐4,4‐dimethyl‐3‐(7‐(pyridin‐3‐yl)‐2,3‐dihydrobenzofuran‐5‐yl)‐1H‐pyrazol‐5(4H)‐one], in data set [1], the IC50 is 1.58 µM and the “SI (selectivity index)” value turned out to be 16. Further, the IC50 in data set [3] is 25.1 µM.
As for `COc1c(Br)cc(C2=NN(C(C)C)C(=O)C2(C)C)cc1-c1cccnc1` [compound 60], in data set [1], the IC50 is 7.94 µM and the “SI (selectivity index)” value worked out at 3. Also, the IC50 in data set [3] is 25.1 µM.
Turning to `CC(C)N1N=C(c2cccc(-c3cccnc3)c2)C(C)(C)C1=O` [compound 61], in data set [1], the IC50 is 3.16 µM and the “SI (selectivity index)” value is given as 20. Further, in data set [3], the IC50 was 63.1 µM.
In the case of `CC(C)N1N=C(c2ccc(F)c(-c3cccnc3)c2)C(C)(C)C1=O` [compound 62], in data set [1], the IC50 is around 3.16 µM and the “SI (selectivity index)” value is given as above 10. Moreover, in data set [3], the IC50 is above 63.1 µM.
Regarding `CC(C)N1N=C(c2ccc(Cl)c(-c3cccnc3)c2)C(C)(C)C1=O` [compound 63], in data set [1], the IC50 is around 3.16 µM and the “SI (selectivity index)” value is listed as 5. The IC50 in data set [3] is 15.8 µM.
Regarding `Cc1ccc(C2=NN(C(C)C)C(=O)C2(C)C)cc1-c1cccnc1` [compound 64], the IC50 in data set [1] is around 3.16 µM; in data set [3] it was above 63.1 µM. In addition, the “SI (selectivity index)” value in data set [1] was above 25.
For the molecule `COc1ccc(C2=NN(C(C)C)C(=O)C2(C)C)c(F)c1-c1cccnc1` [compound 65], in data set [1], the IC50 was 2.51 µM and the “SI (selectivity index)” value was above 25. Besides, the IC50 in data set [3] was above 63.1 µM.
Take `COc1cc(F)c(C2=NN(C(C)C)C(=O)C2(C)C)cc1-c1cccnc1` [compound 66]: the results for the IC50 in data set [1] and in data set [3] were 5.01 µM and above 63.1 µM, respectively. For the same molecule, in data set [1], the “SI (selectivity index)” value is listed as above 13.
Regarding `COc1c(C)cc(C2=NN(C(C)C)C(=O)C2(C)C)cc1-c1cccnc1` [compound 67], the IC50 is 12.6 µM in data set [1] and above 63.1 µM in data set [3]. Besides, the “SI (selectivity index)” value in data set [1] was above 5.
In the case of `COc1cc(C)c(C2=NN(C(C)C)C(=O)C2(C)C)cc1-c1cccnc1` [compound 68], in data set [1], the IC50 was 31.6 µM and the “SI (selectivity index)” value was above 2. Also, in data set [3], the IC50 is above 63.1 µM.
Take `CC(C)N1N=C(c2ccc(C#N)c(-c3cccnc3)c2)C(C)(C)C1=O` [compound 74]: in data set [1], the IC50 is 50.1 µM and the “SI (selectivity index)” value was above 1. Besides, in data set [3], the IC50 is above 63.1 µM.
For the molecule `COc1ccc(C2=NN(C(C)C)C(=O)C23CCCC3)cc1-c1cccnc1` [compound 89], the IC50 in data set [1] is 6.31 µM; in data set [3], 31.6 µM.
Consider `COc1ccc(C2=NN(C(C)C)C(=O)C23CC=CC3)cc1-c1cccnc1` [compound 90], for which the IC50 in data set [1] is 7.94 µM; in data set [3] it was 39.8 µM.
As for `COc1ccc(C2=NN(C(C)C)C(=O)C23CCN(C)CC3)cc1-c1cccnc1` [compound 91], in data set [1], the IC50 was 31.6 µM and the “SI (selectivity index)” value was found to be 2. In addition, the IC50 in data set [3] was 50.1 µM.
With `COc1ccc(C2=NN(C(C)C)C(=O)C23CCOCC3)cc1-c1cccnc1` [compound 92], the IC50 in data set [1] and in data set [3] was 31.6 µM throughout. Further, the “SI (selectivity index)” value in data set [1] came out at 1.
With `COc1ccc(-c2cc3n(n2)CCO3)cc1-c1cccnc1` [compound 95], the IC50 in data set [1] was 31.6 µM; in data set [3], 50.1 µM. In addition, the “SI (selectivity index)” value in data set [1] amounted to 2.
Turning to `COc1ccc(Cc2nnc(N)s2)cc1-c1cccnc1` [compound 98], the IC50 in data set [1] and in data set [3] was above 63.1 µM throughout.
For the molecule `COc1ccc(C2=NN(C(C)C)C(=S)C2(C)C)cc1-c1cccnc1` [compound 99], in data set [1], the IC50 is 0.501 µM and the “SI (selectivity index)” value stood at 32. The IC50 in data set [3] was 15.8 µM.
The corresponding values for `COc1ccc(C2=NN(C(C)C)C(=O)CC2)cc1-c1cccnc1` [compound 104] are 10 µM, 3 and 25.1 µM.
For `COc1ccc(C2=Nn3c(C4CC4)nnc3C2(C)C)cc1-c1cccnc1` [compound 109], in data set [1], the IC50 was 15.8 µM and the “SI (selectivity index)” value was above 4. Besides, the IC50 in data set [3] was above 63.1 µM.
As to `COc1ccc(-c2nc(C(C)(C)C)co2)cc1-c1cccnc1` [compound 120, 4‐(tert‐Butyl)‐2‐(4‐methoxy‐3‐(pyridin‐3‐yl)phenyl)oxazole], in data set [1], the IC50 is 2 µM and the “SI (selectivity index)” value was found to be 3. Also, the IC50 in data set [3] was below 6.31 µM.
On to `COc1ccc(-c2nc(-c3ccccc3)co2)cc1-c1cccnc1` [compound 121], for which, in data set [1], the IC50 was 1 µM and the “SI (selectivity index)” value is on record as 3. For the same molecule, the IC50 in data set [3] was below 6.31 µM.
Regarding `COc1ccc(-c2nc(-c3cccc(F)c3)co2)cc1-c1cccnc1` [compound 122], the IC50 in data set [1] was 1.26 µM.
As for `COc1ccc(-c2nc(-c3ccc(F)cc3)co2)cc1-c1cccnc1` [compound 123], in data set [1], the IC50 was 0.631 µM and the “SI (selectivity index)” value is above 100. Further, the “MRC‐5 toxicity at 62 μM” value in data set [3] (62 μM, limit concentration screened) was “no MRC‐5 toxicity”. Besides, the IC50 in data set [3] is above 63.1 µM.
With `COc1ccc(-c2nc(-c3ccccc3)c(C)o2)cc1-c1cccnc1` [compound 124], in data set [1], the IC50 was 2 µM and the “SI (selectivity index)” value is 3. The IC50 in data set [3] was below 6.31 µM.
The corresponding values for `COc1ccc(-c2nnc(C(C)C)o2)cc1-c1cccnc1` [compound 132, 2‐Isopropyl‐5‐(4‐methoxy‐3‐(pyridin‐3‐yl)phenyl)‐1,3,4‐oxadiazole] are 20 µM, above 3 and above 63.1 µM.
In the case of `COc1ccc(-c2nnc(C3CCCC3)o2)cc1-c1cccnc1` [compound 133], in data set [1], the IC50 was 10 µM and the “SI (selectivity index)” value is given as above 6. Also, in data set [3], the IC50 was above 63.1 µM.
For `COc1ccc(-c2nnc(CC3CCOCC3)o2)cc1-c1cccnc1` [compound 134], the results for the IC50 in data set [1] and in data set [3] were 25.1 µM and above 63.1 µM, respectively. Besides, the “SI (selectivity index)” value in data set [1] is above 3.
The matching figures for `COc1ccc(-c2nnc(-c3ccccc3)o2)cc1-c1cccnc1` [compound 135]: around 1.58 µM, above 63.1 µM and above 40.
With `COc1ccc(-c2nnc(-c3cccc(F)c3)o2)cc1-c1cccnc1` [compound 136], in data set [1], the IC50 was around 1.58 µM and the “SI (selectivity index)” value is given as above 32. Also, in data set [3], the IC50 is above 63.1 µM.
In the case of `COc1ccc(-c2nc(C3CC3)cs2)cc1-c1cccnc1` [compound 141], in data set [1], the IC50 was 2.51 µM and the “SI (selectivity index)” value came out at 3. Besides, the IC50 in data set [3] was 7.94 µM.
In the case of `COc1ccc(-c2nc(-c3ccccc3)cs2)cc1-c1cccnc1` [compound 142], the results for the IC50 in data set [1] and in data set [3] were 2 µM and 2.51 µM, respectively. Moreover, in data set [1], the “SI (selectivity index)” value is on record as 1.
